From PMC9436924, “A gene cluster in Ginkgo biloba encodes unique multifunctional cytochrome P450s that initiate ginkgolide biosynthesis” (Nature Communications, 2022)

How the values were obtained:
[1] = molecular target: T1, GbCYP720B31 (Ginkgo biloba, UniProt Z9PDJ7KIF4); assay: pathway co-expression in tobacco and yeast, LC-HRMS, NMR of product glucosides; type: cell-based; details: proposed substrate made in situ by upstream enzymes, free form not detected
T1 construct: G. biloba cDNA, gene on chromosome 4; expressed in Nicotiana benthamiana and Saccharomyces cerevisiae; GenBank numbers ON759313-ON759329 printed only as a collective set
T1 sequence (Z9PDJ7KIF4 1-483): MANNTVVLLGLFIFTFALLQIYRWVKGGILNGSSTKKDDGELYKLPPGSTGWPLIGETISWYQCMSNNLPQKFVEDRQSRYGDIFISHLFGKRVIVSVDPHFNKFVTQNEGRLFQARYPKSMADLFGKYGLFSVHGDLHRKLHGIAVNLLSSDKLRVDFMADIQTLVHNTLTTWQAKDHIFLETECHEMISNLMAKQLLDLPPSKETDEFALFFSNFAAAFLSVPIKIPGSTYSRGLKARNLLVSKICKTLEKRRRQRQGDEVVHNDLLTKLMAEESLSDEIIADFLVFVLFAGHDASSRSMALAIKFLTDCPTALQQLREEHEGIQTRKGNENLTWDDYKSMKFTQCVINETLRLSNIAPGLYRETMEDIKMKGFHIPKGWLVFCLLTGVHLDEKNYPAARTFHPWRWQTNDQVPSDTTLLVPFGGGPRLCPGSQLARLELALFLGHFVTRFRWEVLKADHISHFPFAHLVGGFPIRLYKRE

[2] = molecular target: T2, GbLPS (Ginkgo biloba, UniProt Q947C4); assay: expression in tobacco leaves, GC-MS of products; type: cell-based; details: substrate made in situ with CfDXS and CfGGPPS
T2 construct: gene LPS; transiently expressed in Nicotiana benthamiana leaves, plastidial; (in yeast a truncated, codon-optimised MBP fusion was used)
T2 sequence (Q947C4 60-873): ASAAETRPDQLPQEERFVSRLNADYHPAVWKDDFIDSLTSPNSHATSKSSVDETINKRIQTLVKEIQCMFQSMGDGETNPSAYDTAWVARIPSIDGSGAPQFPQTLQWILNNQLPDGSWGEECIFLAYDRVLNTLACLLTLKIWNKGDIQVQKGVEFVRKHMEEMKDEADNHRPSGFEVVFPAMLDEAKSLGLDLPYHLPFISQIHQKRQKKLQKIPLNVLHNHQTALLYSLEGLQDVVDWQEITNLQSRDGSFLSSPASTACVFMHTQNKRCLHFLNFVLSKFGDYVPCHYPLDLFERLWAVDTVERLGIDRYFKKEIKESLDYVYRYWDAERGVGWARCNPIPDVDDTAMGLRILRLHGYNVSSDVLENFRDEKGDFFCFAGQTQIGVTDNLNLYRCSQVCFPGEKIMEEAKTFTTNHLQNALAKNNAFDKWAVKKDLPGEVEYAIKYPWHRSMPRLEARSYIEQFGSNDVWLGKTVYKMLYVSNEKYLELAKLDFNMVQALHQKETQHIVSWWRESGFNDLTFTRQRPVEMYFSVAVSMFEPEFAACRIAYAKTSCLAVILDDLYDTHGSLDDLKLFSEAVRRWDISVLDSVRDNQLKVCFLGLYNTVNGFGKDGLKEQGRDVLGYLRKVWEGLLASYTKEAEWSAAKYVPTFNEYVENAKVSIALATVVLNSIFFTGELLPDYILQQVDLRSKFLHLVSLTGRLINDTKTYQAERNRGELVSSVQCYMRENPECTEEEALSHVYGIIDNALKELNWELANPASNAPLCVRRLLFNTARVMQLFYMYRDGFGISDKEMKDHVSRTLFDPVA

Structure (SMILES) | pathway co-expression in tobacco and yeast, LC-HRMS, NMR of product glucosides [1] | expression in tobacco leaves, GC-MS of products [2]
CC(=CC(=O)O)C(CCc1cc(O)c(C(C)C)cc1O)C(C)(C)C (centres unmarked) [ginkgosinoic acid C] | we propose that GbCYP720B31 hydroxylates ginkgosinoic acid C at position C20 | 
CC(C)=CCC/C(C)=C/CC/C(C)=C/CC/C(C)=C/COP(=O)(O)OP(=O)(O)O [geranylgeranyl pyrophosphate] |  | levopimaradiene synthase (GbLPS) converts GGPP to diterpene hydrocarbon levopimaradiene
